Results reported in PMC7269481, “ZN148 Is a Modular Synthetic Metallo-β-Lactamase Inhibitor That Reverses Carbapenem Resistance in Gram-Negative Pathogens In Vivo” (Antimicrobial Agents and Chemotherapy, 2020).
Read-outs that look alike come from different tables or passages of the source.

How the values were obtained:
[1] = test system: NDM-1-producing K. pneumoniae K66-45; assay: Meropenem MIC, broth microdilution, indicator strain K66-45; type: cell-based; settings: for MIC: Klebsiella pneumoniae
Experimental: (§1) MICs of carbapenems alone and in combination with inhibitors were determined by broth microdilution according to the Clinical and Laboratory Standards Institute (CLSI) guidelines ([48]) using either premade plates (TREK Diagnostic Systems/Thermo Fisher Scientific, East Grinstead, United Kingdom) with meropenem or in-house-prepared plates with meropenem, imipenem, and doripenem. ZN148 and other inhibitors were tested at a fixed concentration of 50 μM. Cation-adjusted Mueller-Hinton medium (TREK Diagnostic Systems/Thermo Fisher Scientific; Becton Dickinson, Franklin Lakes, NJ) were used as growth medium. The plates were incubated for 20 h at 37°C. ZN148, ZN222, ZN223, ZN228, and TPA were initially tested in combination with meropenem using two indicator strains: NDM-1-producing K. pneumoniae ([49], [50]) and VIM-2-producing P. aeruginosa ([51]). The activity of ZN148 were subsequently tested against two extended strain collections: (i) in combination with meropenem against MBL-producing Enterobacterales (n = 62), MBL-producing P. aeruginosa (n = 9) and MBL- and class D carbapenemase-coproducing Enterobacterales (n = 5) from the strain collection at the Norwegian National Advisory Unit on Detection of Antimicrobial Resistance and (ii) in combination with meropenem, imipenem, and doripenem against globally collected MBL-producing E. coli (n = 87), K. pneumoniae (n = 85), P. aeruginosa (n = 52), and A. baumannii (n = 6), MBL- and class A/D carbapenemase-coproducing E. coli (n = 11), K. pneumoniae (n = 15) and A. baumannii (n = 7) at IHMA Europe, Sàrl, Switzerland. E. coli ATCC 25922 and P. aeruginosa ATCC 27853 were used as quality control strains. The MBL inhibitors were also tested for intrinsic antibacterial activity against the strains.

VIM-2 [2] = molecular target: T1, VIM-2 (Escherichia coli, UniProt Q5U7L7); assay: LC-ESI-MS of VIM-2 incubated with inhibitor; settings: VIM-2 preincubated with 5 mM ZN148
T1 construct: made in house
Experimental: VIM-2 (8 μM final concentration) was incubated together without or with 5 mM ZN148 on ice for 30 min. Incubation was carried out in Chelex HEPES buffer (pH 7.5), and the inhibitors were diluted in Milli-Q water (Millipore/Merck) by a factor of 1,000,000 using centrifugal filters (10,000 Da; Merck). Liquid chromatography electrospray ionization Q-TOF mass spectrometry (LC-ESI-MS; Agilent Technologies, Santa Clara, CA) was performed in positive-ion mode using 0.1% formic acid in Milli-Q water and acetonitrile (VWR, Radnor, PA) at 0.4 ml/min. Spectra deconvolution was performed by using BioConfirm and MassHunter qualitative analysis (Agilent Technologies).

[3] = test system: MBL-producing Enterobacterales (n=234); assay: Meropenem MIC distribution, all MBL-producing Enterobacterales; type: cell-based; settings: for No. of strains with indicated MIC: MEM alone or +50 µM ZN148
Experimental: as §1

[4] = test system: NDM-1-producing K. pneumoniae K66-45; assay: Time-kill assay; type: cell-based
Experimental: To determine the kinetics of killing of the meropenem-ZN148 combination, NDM-1-producing K. pneumoniae K66-45 (1 × 10^6 CFU/ml) in cation-adjusted Mueller-Hinton broth II (Sigma-Aldrich, St. Louis, MO) was treated with either 4 mg/liter meropenem or a combination of 4 mg/liter meropenem plus 50 or 100 μM ZN148 and grown at 37°C with shaking (180 rpm). The cell number was determined over the course of 24 h by using a modified Miles-Misra method ([52]). Briefly, […] serial dilutions of culture in sterile PBS were spotted and dried on square (10 by 10 cm) Luria-Bertani agar (Oxoid, Basingstoke, UK) plates at room temperature before incubation at 37°C. The limit of detection was set as […] in […] of undiluted culture, representing 100 CFU/ml.

[5] = test system: NDM-1-producing A. baumannii strains (n=6); assay: Carbapenem MIC, NDM-1-producing A. baumannii; type: cell-based
Experimental: as §1

VIM-2 [6] = molecular target: T1, VIM-2; assay: Time-dependent inactivation kinetics of purified VIM-2 (nitrocefin); type: biochemical
Experimental: Protein expression and purification of NDM-1 and VIM-2 were performed as previously described ([36], [43], [57]). Stock solutions of purified NDM-1 and VIM-2 were prepared in 50 mM HEPES buffer (pH 7.5; Merck). Inhibition of NDM-1 and VIM-2 were determined for ZN148 and the analogues ZN222, ZN223, and ZN228 at different concentrations of inhibitor after preincubation times of 2, 8, 15, 25, and 32 min in 50 mM HEPES buffer (pH 7.5) supplemented with 1 μM ZnSO4 (Sigma-Aldrich) and bovine serum albumin (Sigma-Aldrich; final concentration, 2 μg/ml) at 25°C. Concentrations of 1 nM VIM-2 and 30 nM NDM-1 were used, and the reaction was initiated by the addition of 30 μM nitrocefin (Merck) for VIM-2 or 100 μM imipenem (Sigma-Aldrich) for NDM-1. The reaction was measured at 482 nm (VIM-2) or […] (NDM-1) in either standard 96-well plates (Thermo Fisher Scientific) for VIM-2 or UV-transparent 96-well plates (Corning, Kennebunk, ME) for NDM-1 at 25°C in a SpectraMax Plus plate reader (Molecular Devices). All of the enzyme and substrate concentrations indicated are the final concentrations in the assay. The enzyme activity as a percentage was calculated based on the initial velocity and compared to the control without inhibitor compound. All tests were performed at least in duplicates.
The observed rate constant (kobs) per inhibitor concentration was calculated from the slope of a semilog plot of the enzyme activity in percent versus preincubation time.
By fitting these values, the irreversible kinetic parameters maximum inactivation rate (kinact) and the inhibitor concentration that produces half-maximal rate of inactivation (KI) were obtained. Finally, the inhibitors were characterized by calculating kinact/KI. Where no saturation curve could be observed, KI and kinact were determined from the linear part of plot 1/kobs versus 1/[I].

[7] = test system: VIM-2-producing P. aeruginosa K34-7; assay: Meropenem MIC, broth microdilution, indicator strain K34-7; type: cell-based
Experimental: as §1

E. coli with IMP (n=3) = assay: Meropenem MIC distribution, E. coli with IMP; type: cell-based; settings: MEM alone or +50 µM ZN148
Experimental: (§2) MICs of carbapenems alone and in combination with inhibitors were determined by broth microdilution according to the Clinical and Laboratory Standards Institute (CLSI) guidelines ([48]) using either premade plates (TREK Diagnostic Systems/Thermo Fisher Scientific, East Grinstead, United Kingdom) with meropenem or in-house-prepared plates with meropenem, imipenem, and doripenem. ZN148 and other inhibitors were tested at a fixed concentration of 50 μM. Cation-adjusted Mueller-Hinton medium (TREK Diagnostic Systems/Thermo Fisher Scientific; Becton Dickinson, Franklin Lakes, NJ) were used as growth medium. The plates were incubated for 20 h at 37°C. ZN148, ZN222, ZN223, ZN228, and TPA were initially tested in combination with meropenem using two indicator strains: NDM-1-producing K. pneumoniae ([49], [50]) and VIM-2-producing P. aeruginosa ([51]). […]

[8] = test system: NDM-1-producing K. pneumoniae 50752501; assay: Meropenem MIC of the in vivo strain; type: cell-based; settings: Klebsiella pneumoniae; read-out: MEM MIC
Experimental: as §2

[9] = meropenem 4 mg/liter with either 50 or 100 μM ZN148

CN(C[C@H](O)[C@@H](O)[C@H](O)[C@H](O)CO)C(=O)c1ccc(CN(Cc2ccccn2)Cc2ccccn2)nc1 [ZN148]
restoration of meropenem clinical susceptibility (EUCAST breakpoints) ([1]; inhibitor at 50 μM): fully restored meropenem clinical susceptibility
change in mass of VIM-2 (VIM-2 [2]): 46.2 ± 0.1 Da
strains with meropenem MIC reduced to susceptible levels (≤2 mg/liter) ([3]; ZN148 at 50 μM, n = 234): > 98%
cell numbers after 8 h (below limit of detection) [4, 9]: < 1 × 10^2 CFU/ml
killing effect of combination [4, 9]: bactericidal
regrowth within 24 h [4, 9]: no regrowth
reduction of meropenem MIC ([5]; in four of six clinical strains, class D carbapenemase-negative): > 2 fold
kinact (VIM-2 [6]): 0.00262 s⁻¹
kinact/KI (VIM-2 [6]): 110 M⁻¹ s⁻¹
restoration of meropenem clinical susceptibility (EUCAST breakpoints) ([7]; inhibitor at 50 μM): fully restored meropenem clinical susceptibility

C[C@@H](O)[C@H]1C(=O)N2C(C(=O)O)=C(S[C@@H]3CN[C@H](C(=O)N(C)C)C3)[C@H](C)[C@H]12 [meropenem]
MIC ([1]; alone or in presence of 30 µM, 50 µM or 100 µM ZN148 (Table S6 title), read-out: MIC of meropenem): > 32 µg/mL
MIC ([1]; meropenem alone or +50 µM TPA or ZN148, read-out: Meropenem MIC): 32 to 64 µg/mL
No. of strains with indicated MIC (E. coli with IMP (n=3); MIC 4 mg/L): 1
No. of strains with indicated MIC (E. coli with IMP (n=3); MIC 16 mg/L): 2
MIC90 [3]: ≥ 64 µg/mL
No. of strains with indicated MIC ([3]; MIC 0.5 mg/L): 1
No. of strains with indicated MIC ([3]; MIC 1 mg/L): 2
No. of strains with indicated MIC ([3]; MIC 2 mg/L): 3
No. of strains with indicated MIC ([3]; MIC 4 mg/L): 10
No. of strains with indicated MIC ([3]; MIC 8 mg/L): 9
No. of strains with indicated MIC ([3]; MIC 16 mg/L): 22
No. of strains with indicated MIC ([3]; MIC 32 mg/L): 35
No. of strains with indicated MIC ([3]; MIC ≥64 mg/L): 152
cell number after 24 h ([4]; meropenem alone 4 mg/liter): > 1 × 10^9 CFU/ml
initial reduction in cell numbers (bacteriostatic effect) ([4]; meropenem alone 4 mg/liter): 2 log
MIC ([5]; carbapenem alone or in combination with 50µM ZN148, one value per strain (n=6)): > 64 µg/mL
MIC [8]: 64 µg/mL
MIC ([7]; Pseudomonas aeruginosa, meropenem alone or +50 µM TPA or ZN148): 32 to 64 µg/mL
